The source of these data is paper PMC6773951 (Scientific Reports, 2019).

The target of the assay is T1, hPIRT (human PIRT, phosphoinositide interacting regulator of TRPs) (Homo sapiens, UniProt P0C851).
T1 construct: full-length, recombinant from E. coli, reconstituted in DPC micelles; two TM helices, C-terminal amphipathic helix Asp125-Arg137; maleimide dye labelled for MST
In words: microscale thermophoresis. In kind it is binding. Particulars: DPC micelles (0.1% DPC), 50 mM HEPES pH 7.5, 25 °C; fluorophore-labelled hPIRT 400 nM; no TRPM8-S1S4; diC8 chain stated for the NMR titration, MST lipid called PIP2 only.

T1 sequence (P0C851 whole entry): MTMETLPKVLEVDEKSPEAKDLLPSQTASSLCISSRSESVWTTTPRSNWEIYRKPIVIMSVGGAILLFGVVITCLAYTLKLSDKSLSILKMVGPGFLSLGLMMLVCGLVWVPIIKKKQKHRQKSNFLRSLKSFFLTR

Molecule `CCCCCCCC(=O)OC[C@H](COP(=O)(O)O[C@@H]1[C@H](O)[C@H](O)[C@@H](OP(=O)(O)O)[C@H](OP(=O)(O)O)[C@H]1O)OC(=O)CCCCCCC` [PIP2, 1,2-dioctanoyl-sn-glycero-3-phospho-(1′-myo-inositol-4′,5′-bisphosphate)] came in with a Kd of 0.18 ± 0.06 mole%.
